Experimental data published in ChEMBL document CHEMBL1201862, “PubChem BioAssay data set” (2004).
Counter-ions that a name gives are not always drawn. Activity calls are given as the source filed them.

Key:
[1] = biological target: T1, Beta-adrenergic receptor kinase 1 (Homo sapiens, UniProt P25098); test: aptamer displacement from bead-bound GRK2 – biochemical, cherry pick 1, bead flow cytometry, dose response (AID 504500)
[2] = biological target: T2, Apoptotic protease-activating factor 1 (Homo sapiens, UniProt O14727); test: activation of Apaf-1 mediated apoptosis – fluorescent, uHTS hits, dose response (AID 588554); format: functional
T2 sequence (O14727 whole entry): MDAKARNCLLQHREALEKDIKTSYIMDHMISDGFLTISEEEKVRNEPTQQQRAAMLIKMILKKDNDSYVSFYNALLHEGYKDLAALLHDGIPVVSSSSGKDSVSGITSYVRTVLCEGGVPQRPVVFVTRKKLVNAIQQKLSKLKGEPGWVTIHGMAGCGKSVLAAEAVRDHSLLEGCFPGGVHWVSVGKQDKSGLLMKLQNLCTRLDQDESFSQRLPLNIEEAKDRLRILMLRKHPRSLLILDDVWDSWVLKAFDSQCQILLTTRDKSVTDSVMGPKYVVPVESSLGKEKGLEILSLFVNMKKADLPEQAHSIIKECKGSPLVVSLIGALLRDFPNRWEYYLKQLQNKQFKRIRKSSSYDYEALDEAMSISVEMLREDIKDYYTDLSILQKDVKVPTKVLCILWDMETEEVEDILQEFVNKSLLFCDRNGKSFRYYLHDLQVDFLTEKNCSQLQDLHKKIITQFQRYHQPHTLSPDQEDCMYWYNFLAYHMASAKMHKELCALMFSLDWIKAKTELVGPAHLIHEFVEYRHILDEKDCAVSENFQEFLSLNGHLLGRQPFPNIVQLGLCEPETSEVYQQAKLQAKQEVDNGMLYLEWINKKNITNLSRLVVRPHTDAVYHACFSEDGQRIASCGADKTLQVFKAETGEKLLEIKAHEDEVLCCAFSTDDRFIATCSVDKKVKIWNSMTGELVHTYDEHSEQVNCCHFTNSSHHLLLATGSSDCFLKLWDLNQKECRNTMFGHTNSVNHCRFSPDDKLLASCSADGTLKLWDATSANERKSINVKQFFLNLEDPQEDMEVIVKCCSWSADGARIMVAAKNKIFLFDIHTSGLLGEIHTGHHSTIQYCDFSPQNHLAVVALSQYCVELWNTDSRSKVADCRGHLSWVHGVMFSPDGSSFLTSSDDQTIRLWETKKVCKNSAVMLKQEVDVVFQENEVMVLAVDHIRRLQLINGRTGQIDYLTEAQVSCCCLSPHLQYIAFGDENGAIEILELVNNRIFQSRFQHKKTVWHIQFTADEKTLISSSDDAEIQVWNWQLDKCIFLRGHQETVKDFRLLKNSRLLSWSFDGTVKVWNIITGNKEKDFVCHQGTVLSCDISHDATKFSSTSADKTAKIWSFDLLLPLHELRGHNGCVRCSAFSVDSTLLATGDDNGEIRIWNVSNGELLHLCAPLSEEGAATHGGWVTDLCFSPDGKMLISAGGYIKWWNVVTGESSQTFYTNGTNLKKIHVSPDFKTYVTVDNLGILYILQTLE

[3] = biological target: T1, Beta-adrenergic receptor kinase 1; test: blockers of aptamer binding to GRK2 – biochemical, flow cytometry beads, FAM-aptamer, powder set 1, dose response (AID 588720)
[4] = biological target: T3, Carboxy-terminal domain RNA polymerase II polypeptide A small phosphatase 1 (Homo sapiens, UniProt Q9GZU7); test: CTDSP1 inhibitors, concentration-response, biochemical, absorbance readout, ultra-high-throughput screen actives (AID 540297); format: functional
T3 sequence (Q9GZU7 whole entry): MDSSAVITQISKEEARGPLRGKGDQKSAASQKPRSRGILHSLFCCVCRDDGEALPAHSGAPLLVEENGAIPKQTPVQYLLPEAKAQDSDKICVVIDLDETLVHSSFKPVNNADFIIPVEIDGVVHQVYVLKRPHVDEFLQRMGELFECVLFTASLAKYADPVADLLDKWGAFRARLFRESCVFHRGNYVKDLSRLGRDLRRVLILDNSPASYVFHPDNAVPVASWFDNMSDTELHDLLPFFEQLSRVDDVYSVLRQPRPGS

Protein S100-A4 = Protein S100-A4 (Homo sapiens, UniProt P26447); test: human S100A4 peptide interaction inhibition curves – biochemical, fluorescence polarization, cherry-picked hits, dose response (AID 687001); format: functional
Sequence of Protein S100-A4 (P26447 whole entry): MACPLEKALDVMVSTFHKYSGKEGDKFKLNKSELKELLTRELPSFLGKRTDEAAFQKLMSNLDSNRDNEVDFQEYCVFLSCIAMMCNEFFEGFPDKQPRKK

Caspase-6 = biological target: T4, Caspase-6 (Homo sapiens, UniProt P55212); test: inhibition of CASP6 peptide cleavage – biochemical, VEID-R110 fluorescence, cherry-pick, dose response (AID 720632)
T4 sequence (P55212 whole entry): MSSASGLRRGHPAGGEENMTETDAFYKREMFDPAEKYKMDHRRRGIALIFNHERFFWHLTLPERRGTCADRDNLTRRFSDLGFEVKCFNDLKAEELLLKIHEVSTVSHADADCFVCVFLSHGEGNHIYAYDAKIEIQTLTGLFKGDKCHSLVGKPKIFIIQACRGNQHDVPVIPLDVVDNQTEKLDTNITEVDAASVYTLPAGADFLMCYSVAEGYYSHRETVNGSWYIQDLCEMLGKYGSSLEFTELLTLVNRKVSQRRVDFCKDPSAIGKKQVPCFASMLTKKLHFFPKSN

Caspase-7 = Caspase-7 (Homo sapiens, UniProt P55210); test: caspase-7 enzyme inhibition, selectivity check – biochemical, DEVD-R110 fluorescence, cherry-pick, selectivity assay for caspase-6 inhibitor project, dose response (AID 743295); format: functional
Sequence of Caspase-7 (P55210 24-198 limits assumed): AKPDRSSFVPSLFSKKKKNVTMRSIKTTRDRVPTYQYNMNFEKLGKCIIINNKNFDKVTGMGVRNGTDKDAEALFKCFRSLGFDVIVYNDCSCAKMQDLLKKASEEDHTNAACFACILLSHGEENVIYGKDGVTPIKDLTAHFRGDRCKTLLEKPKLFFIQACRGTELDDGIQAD
Sequence of Caspase-7 (P55210 207-303 limits assumed): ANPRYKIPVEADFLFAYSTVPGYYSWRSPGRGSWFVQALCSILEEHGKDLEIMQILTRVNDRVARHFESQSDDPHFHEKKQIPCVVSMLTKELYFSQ

[5] = biological target: Peroxisome proliferator-activated receptor gamma/Nuclear receptor corepressor 2 (Homo sapiens, UniProt P37231+Q9Y618); test: Counterscreen for NR2E3 inverse agonists: TR-FRET-based biochemical high throughput dose response assay to identify inverse agonists of the interaction between peroxisome proliferator-activated receptor gamma (PPARg) and nuclear receptor co-repressor 2 (NCOR2).; format: functional
[6] = biological target: Photoreceptor-specific nuclear receptor (Homo sapiens, UniProt Q9Y5X4); test: ligands suppressing NR2E3 nuclear receptor activity – biochemical, TR-FRET, dose response (AID 463256); format: functional
Sequence of Photoreceptor-specific nuclear receptor (Q9Y5X4 whole entry): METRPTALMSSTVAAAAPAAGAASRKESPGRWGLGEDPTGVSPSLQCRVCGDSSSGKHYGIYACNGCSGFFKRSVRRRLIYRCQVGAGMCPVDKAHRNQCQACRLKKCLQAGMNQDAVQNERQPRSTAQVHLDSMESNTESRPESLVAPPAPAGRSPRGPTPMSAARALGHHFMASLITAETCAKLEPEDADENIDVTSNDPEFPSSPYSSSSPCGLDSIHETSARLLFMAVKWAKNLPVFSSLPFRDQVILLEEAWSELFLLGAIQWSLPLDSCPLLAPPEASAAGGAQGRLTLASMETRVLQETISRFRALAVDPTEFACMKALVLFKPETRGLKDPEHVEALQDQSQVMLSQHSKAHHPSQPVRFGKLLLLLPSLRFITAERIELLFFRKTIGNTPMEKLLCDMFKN

[7] = biological target: T5, Endoribonuclease toxin MazF (Escherichia coli K-12, UniProt P0AE70); test: activation of MazEF endoribonuclease cleavage – biochemical, fluorescence, single-stranded RNA substrate, uHTS hits, dose response (AID 588481); format: functional
T5 sequence (P0AE70 whole entry): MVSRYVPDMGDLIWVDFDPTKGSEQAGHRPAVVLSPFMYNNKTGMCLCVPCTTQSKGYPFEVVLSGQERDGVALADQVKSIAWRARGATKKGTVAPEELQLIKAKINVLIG

[8] = biological target: T5, Endoribonuclease toxin MazF; test: substrate-only fluorescence increase artefacts – biochemical, single-stranded RNase substrate, counter-screen for MazEF activator project, dose response (AID 588502); format: functional
HEK293 = test: EBV LMP1 TES2 canonical NF-kB signalling blockers – cell-based, HEK293, luciferase, cherry-pick, dose response (AID 588343); format: functional; settings: Homo sapiens
[9] = reduction of Shn3 3'UTR-driven luciferase in osteoblasts – cell-based, Clone20 osteoblasts, firefly luciferase, cherry-picked, dose response (AID 624132); format: functional;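 also: firefly luciferase luminescence from reporter carrying the Shn3 3'UTR in osteoblasts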
[10] = loss of viability in HepG2 cells – cell-based, CellTiter-Glo, cherry-picked, cytotoxicity control for Shn3 inhibitor project, dose response (AID 624134); format: functional
[11] = non-specific 3'UTR reporter inhibition in Clone20-Shn3RL – cell-based, Renilla luciferase, cherry-picked, counter-screen for Shn3 inhibitor project, dose response (AID 624133); format: functional
[12] = Lymphoblastoid Cells (LCL) Cytotoxicity Secondary Assay Measured in Cell-Based System Using Plate Reader - 2122-03_Inhibitor_Dose_CherryPick_Activity_Set2. [Related pubchem assays (depositor defined):AID504586]
[13] = luciferase reporter signal suppression in cells – H4 neuroglioma cells, luminescence, dose response (AID 1990); format: functional, cell-based
BJ [14] = test: BJ-TERT fibroblast viability loss – cell-based, RAS-independent, luminescence, dose response (AID 1933); format: functional; settings: Homo sapiens
[15] = Luminescence Cell-Based Dose Response HTS to Identify Inhibitors of 5'UTR Stem-Loop Driven Prion Protein mRNA Translation in H4 Neuroglioblastoma Cells. [Related pubchem assays: 1827 (Project Summary), 1813 (Primary HTS)]; format: functional
[16] = alpha-synuclein stem-loop luciferase translation blockers – H4 neuroglioma cells, luminescence, confirmation (AID 1988); format: functional, cell-based
BJ [17] = test: cells; format: functional, cell-based; settings: Homo sapiens
BJ [18] = test: BJ-TERT-LT-ST fibroblast viability loss – cell-based, RAS-independent, luminescence, dose response (AID 1935); format: functional; settings: Homo sapiens;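 also: BJ fibroblasts immortalized with TERT plus LT and ST oncogenes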
[19] = DRD fibroblast viability loss – cell-based, non-viral oncogenic, luminescence, dose response (AID 1934); format: functional; settings: Homo sapiens
[20] = biological target: C-C chemokine receptor type 6 (Homo sapiens, UniProt P51684); test: antagonism of CCR6 beta-arrestin recruitment – cell-based, luminescent beta-arrestin readout, dose response (AID 504728); format: functional
Sequence of C-C chemokine receptor type 6 (P51684 whole entry): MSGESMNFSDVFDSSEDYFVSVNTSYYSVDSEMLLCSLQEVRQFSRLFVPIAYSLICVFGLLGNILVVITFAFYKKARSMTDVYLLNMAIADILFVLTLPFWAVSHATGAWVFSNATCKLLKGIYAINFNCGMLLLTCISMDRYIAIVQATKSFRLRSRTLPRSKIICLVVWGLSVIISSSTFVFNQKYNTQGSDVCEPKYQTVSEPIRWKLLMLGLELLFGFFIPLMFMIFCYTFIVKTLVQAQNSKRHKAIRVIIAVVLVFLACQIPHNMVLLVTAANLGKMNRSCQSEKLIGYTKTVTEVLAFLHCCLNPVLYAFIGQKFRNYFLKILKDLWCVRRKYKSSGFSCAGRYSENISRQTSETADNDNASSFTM

Bcl-2-related protein A1 = biological target: T6, Bcl-2-related protein A1 (Mus musculus, UniProt Q07440); format: functional;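 also: confirmatory dose–response counterscreen on Bfl-1, used to check hits from a UBC13 polyubiquitin inhibitor campaign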
T6 sequence (Q07440 whole entry): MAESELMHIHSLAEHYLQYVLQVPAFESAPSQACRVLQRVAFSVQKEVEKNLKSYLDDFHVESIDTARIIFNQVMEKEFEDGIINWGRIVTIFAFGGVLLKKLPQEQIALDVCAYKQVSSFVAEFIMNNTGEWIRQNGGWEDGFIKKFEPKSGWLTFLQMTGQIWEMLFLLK

[21] = biological target: T7, Ubiquitin-conjugating enzyme E2 N (Homo sapiens, UniProt P61088); format: functional
T7 sequence (P61088 whole entry): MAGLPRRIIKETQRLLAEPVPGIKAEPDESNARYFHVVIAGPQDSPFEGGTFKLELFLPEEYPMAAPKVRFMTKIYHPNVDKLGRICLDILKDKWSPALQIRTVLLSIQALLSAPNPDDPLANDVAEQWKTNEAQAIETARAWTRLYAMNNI

Beta-galactosidase = Beta-galactosidase (Escherichia coli, UniProt Q8VNN2); test: detection-enzyme interference by beta-gal modulators – biochemical, E. coli enzyme, set 3, artefact control for CCR6 antagonist project, dose response (AID 504712); format: functional
Sequence of Beta-galactosidase (Q8VNN2 whole entry): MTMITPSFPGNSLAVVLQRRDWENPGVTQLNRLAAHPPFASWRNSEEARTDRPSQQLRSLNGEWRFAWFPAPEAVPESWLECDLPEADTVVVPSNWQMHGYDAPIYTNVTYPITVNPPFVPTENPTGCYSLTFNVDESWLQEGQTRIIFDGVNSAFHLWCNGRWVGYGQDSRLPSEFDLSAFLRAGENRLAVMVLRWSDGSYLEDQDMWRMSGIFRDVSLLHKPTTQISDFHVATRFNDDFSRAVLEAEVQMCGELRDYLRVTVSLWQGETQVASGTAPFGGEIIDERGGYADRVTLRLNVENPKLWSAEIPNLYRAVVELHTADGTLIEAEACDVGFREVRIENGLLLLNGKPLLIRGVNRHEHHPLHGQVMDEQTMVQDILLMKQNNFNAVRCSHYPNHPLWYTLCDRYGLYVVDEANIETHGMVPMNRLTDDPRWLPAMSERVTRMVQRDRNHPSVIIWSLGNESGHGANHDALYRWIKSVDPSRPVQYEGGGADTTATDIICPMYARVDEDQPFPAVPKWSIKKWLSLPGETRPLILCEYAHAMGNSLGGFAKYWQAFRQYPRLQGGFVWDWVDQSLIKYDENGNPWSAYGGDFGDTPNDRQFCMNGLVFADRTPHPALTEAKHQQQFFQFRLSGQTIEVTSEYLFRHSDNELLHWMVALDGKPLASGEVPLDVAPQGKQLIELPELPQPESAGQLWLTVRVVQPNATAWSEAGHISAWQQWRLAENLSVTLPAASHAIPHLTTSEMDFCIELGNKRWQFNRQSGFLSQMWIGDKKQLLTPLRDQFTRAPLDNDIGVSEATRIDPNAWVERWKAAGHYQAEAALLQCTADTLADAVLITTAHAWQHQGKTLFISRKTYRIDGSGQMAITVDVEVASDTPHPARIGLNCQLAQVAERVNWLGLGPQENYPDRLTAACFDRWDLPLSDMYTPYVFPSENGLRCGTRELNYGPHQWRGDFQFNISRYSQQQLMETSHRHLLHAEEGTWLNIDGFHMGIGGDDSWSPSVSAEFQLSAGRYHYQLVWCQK

[22] = biological target: T7, Ubiquitin-conjugating enzyme E2 N; format: functional; remark: listed apart in the source
BJ [23] = test: growth inhibition of engineered Ras-driven BJ cells – cell-based, alamar blue fluorescence, cherrypicked samples, dose response (AID 2631); format: functional; settings: Homo sapiens;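 also: confirmatory dose-response assay in RAS-dependent BJ fibroblasts engineered with TERT, LT and ST, with cytotoxicity read by fluorescence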
[24] = biological target: T8, DNA repair protein RAD52 homolog (Homo sapiens, UniProt P43351); format: functional, biochemical
T8 sequence (P43351 whole entry): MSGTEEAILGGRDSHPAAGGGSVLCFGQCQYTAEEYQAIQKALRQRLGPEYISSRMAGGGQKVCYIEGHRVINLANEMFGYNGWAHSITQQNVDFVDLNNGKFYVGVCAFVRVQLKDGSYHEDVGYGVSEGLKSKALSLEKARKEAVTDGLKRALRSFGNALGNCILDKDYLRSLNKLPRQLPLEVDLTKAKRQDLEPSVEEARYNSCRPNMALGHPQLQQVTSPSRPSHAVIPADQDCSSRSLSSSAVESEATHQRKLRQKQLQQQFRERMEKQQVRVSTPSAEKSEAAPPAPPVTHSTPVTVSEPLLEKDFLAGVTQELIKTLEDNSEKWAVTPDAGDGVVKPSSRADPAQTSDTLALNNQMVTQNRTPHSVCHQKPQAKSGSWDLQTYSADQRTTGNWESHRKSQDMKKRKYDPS

Paired box protein Pax-8 = Paired box protein Pax-8 (Homo sapiens, UniProt Q06710); test: PAX8 transcriptional activity inhibition in RMG-I – RMG-I cells, luciferase, cherry-pick, dose response (AID 687027); format: functional, cell-based;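 also: luciferase reporter driven by Pax8 target thyroperoxidase promoter measured by SteadyGlo luminescence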
Sequence of Paired box protein Pax-8 (Q06710 whole entry): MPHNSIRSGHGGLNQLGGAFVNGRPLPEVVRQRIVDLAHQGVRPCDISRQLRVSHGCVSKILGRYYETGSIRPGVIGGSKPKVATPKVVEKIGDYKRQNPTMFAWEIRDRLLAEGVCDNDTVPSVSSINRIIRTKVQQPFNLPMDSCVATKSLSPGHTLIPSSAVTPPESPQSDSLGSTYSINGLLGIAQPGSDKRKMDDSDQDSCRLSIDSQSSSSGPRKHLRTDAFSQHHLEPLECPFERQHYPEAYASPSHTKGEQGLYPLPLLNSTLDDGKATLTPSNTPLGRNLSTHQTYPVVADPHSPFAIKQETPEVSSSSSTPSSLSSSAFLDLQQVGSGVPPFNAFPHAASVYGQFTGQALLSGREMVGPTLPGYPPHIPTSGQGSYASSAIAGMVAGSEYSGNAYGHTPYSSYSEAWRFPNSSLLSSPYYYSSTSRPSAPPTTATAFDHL

[25] = general cell-killing toxicity readout – plate reader, dry powder samples, cytotoxicity control for PAX8 inhibitor project, dose response (AID 743021); format: functional, cell-based

T1 sequence (P25098 whole entry): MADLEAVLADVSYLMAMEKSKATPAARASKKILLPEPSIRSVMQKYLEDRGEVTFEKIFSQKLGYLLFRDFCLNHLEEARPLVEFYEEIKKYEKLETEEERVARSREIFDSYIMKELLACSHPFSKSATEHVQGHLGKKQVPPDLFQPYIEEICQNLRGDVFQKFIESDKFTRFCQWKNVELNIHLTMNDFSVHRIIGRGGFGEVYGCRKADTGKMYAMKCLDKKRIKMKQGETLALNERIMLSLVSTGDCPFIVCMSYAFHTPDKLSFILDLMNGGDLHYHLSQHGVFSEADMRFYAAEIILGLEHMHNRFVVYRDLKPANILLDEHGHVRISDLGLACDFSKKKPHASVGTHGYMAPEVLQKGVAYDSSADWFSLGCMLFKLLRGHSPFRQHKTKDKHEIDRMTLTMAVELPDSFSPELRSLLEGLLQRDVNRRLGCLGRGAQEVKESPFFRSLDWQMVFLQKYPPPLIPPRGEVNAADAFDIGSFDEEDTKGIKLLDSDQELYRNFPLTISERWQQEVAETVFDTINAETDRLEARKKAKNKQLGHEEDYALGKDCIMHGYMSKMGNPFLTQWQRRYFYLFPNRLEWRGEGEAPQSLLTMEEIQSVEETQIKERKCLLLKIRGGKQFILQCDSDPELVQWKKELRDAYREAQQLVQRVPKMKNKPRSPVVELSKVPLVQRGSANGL

## COc1ccc([N+](=O)[O-])cc1NC(=O)CCS(=O)(=O)c1ccc(Br)cc1
[1]
  EC50: 15 µM (inactive)
[2]
  EC50: 12.2 µM (active)
[3]
  EC50: 1.45 µM (active)
[4]
  IC50: 4.79 µM (active)
Protein S100-A4
  AC50: 4.1 µM (active)
Caspase-6
  AC50: 3.61 µM (active)
Caspase-7
  AC50: > 70 µM (inactive)

## Cn1nc(-c2ccc(C(=O)Nc3cccc(Cl)c3)cc2)c2ccccc2c1=O
[5]
  IC50: 1.78 µM (active)
[6]
  IC50: 3.95 µM (active)
[7]
  EC50: 57.9 µM (inactive)
[8]
  EC50: 14.8 µM (active)

## CCc1cc2c(N3CCN(c4ccccc4)CC3)ncnc2s1
HEK293
  AC50: 26.7 µM (active)
[9]
  AC50: 6.18 µM (active)
[10]
  AC50: 34 µM (active)
[11]
  AC50: 11.3 µM (active)
[12]
  AC50: 26.2 µM (active)

## CCCCCNC(=N)N/N=C/c1c[nH]c2ccc(OC)cc12 [TEGASEROD MALEATE]
[13]
  EC50: > 60 µM (not active)
BJ [14]
  EC50: 5.21 µM (inconclusive)
[15]
  EC50: > 120 µM (not active)
[16]
  EC50: 7.96 µM (active)
BJ [17]
  EC50: 7.15 µM (active)
BJ [18]
  EC50: 3.94 µM (active)
[19]
  EC50: 5.36 µM (inconclusive)
[20]
  IC50: 23.4 µM (inactive)
Bcl-2-related protein A1
  IC50: > 20 µM (inactive)
[21]
  IC50: 12.5 µM (active)
Beta-galactosidase
  IC50: > 66.6 µM (inactive)
[22]
  IC50: 8.2 µM (active)
BJ [23]
  EC50: 3.92 µM (inconclusive)
[24]
  AC50: 16.7 µM (active)
Paired box protein Pax-8
  AC50: 12.4 µM (active)
[25]
  AC50: 23.2 µM (active)
